This note sets out measurements from US12275694B2, “Pharmaceutically acceptable salts of [2-(3-fluoro-5-methane-sulfonylphenoxy)ethyl](propyl)amine and uses thereof” (INTEGRATIVE RESEARCH LABORATORIES SWEDEN AB, priority 2019, dated 2025).

For data set [1], the system named is Parkinson's patients with L-dopa induced dyskinesia (LIDs). The experiment in a line: Human clinical study, 24-hour patient home diaries, good ON time. It counts as in vivo. To be noted: 2.0 mg up to 10 mg such as 2.5, 5.0 or 7.5 mg, compared with an amount equal to or above 10 mg. An excerpt: Home diaries have gained wide acceptance as endpoints for clinical development of therapeutics aiming to reduce treatment-related motor complications. Motor fluctuations are associated with compromise in activities of daily living and health-related quality of life. In clinical trials performed by Integrative Research Laboratories Sweden AB patients record their 24-hours motor function in 30-minute intervals, beginning at midnight. For each 30-minute interval the patient rates the state he or she has been in for the past 30 minutes; OFF, ON without troublesome dyskinesia or ON with troublesome dyskinesia. The patient also denoted the time when he or she has been asleep.
In general, an “OFF” time reduction or “good ON-time” increase of 1 hour may be considered clinically significant and has been used as an assumption in power calculations in clinical trials. […]
A valid diary is defined as not having more than 2 hours of invalid data entries (4 invalid entries) over a given 24-hour period. An invalid diary entry is defined as more than one entry recorded in each half-hour interval, an unreadable entry, or the absence of an entry in each half-hour interval. […]

Data set [2] can be described thus: Plasma concentration of the drug in the human clinical study. It counts as in vivo. To be noted: 2 hours after administration in the morning, 2.5 mg b.i.d.-10 mg b.i.d., patients.
The nature of data set [3]: Hygroscopicity test, weighed samples kept at varied humidity at 30° C. for one week. The format is physicochemical. The settings on record: for Hygroscopicity (in words): any tested relative humidity. The method, then:
After one week, the samples were weighed again and based on the original weight the percentage weight difference was calculated.

The procedure of data set [4]: The temperature was 25° C. using step intervals of 10% between 0% and 95% RH in two consecutive cycles.

Read-outs that look alike come from different tables or passages of the source.

`CCCNCCOc1cc(F)cc(S(C)(=O)=O)c1` [Example 2, [2-(3-fluoro-5-methanesulfonylphenoxy)ethyl](propyl)amine]: the “Good ON time (in words)” value in data set [1] is given as “increased the good ON time to a larger extent”.

Take `CCCNCCOc1cc(F)cc(S(C)(=O)=O)c1` [Example 7, [2-(3-fluoro-5-methanesulfonylphenoxy)ethyl](propyl)amine hemi-L-tartrate]: in data set [2], the concentration at 2 h lay within 50 to 200 nM. Moreover, the entries for the “Hygroscopicity (in words)” value in data set [3] and in data set [3] (listed as L-tartaric acid salt) were “very low hygroscopicity” and “not hygroscopic at any relative humidities”, respectively. In addition, the Weight change in data set [3] (even at very high relative humidity such as 73%, 75%, 83% or 97% for 7 days at 30° C.) is reported as ≤ 0.3%.

With `CCCNCCOc1cc(F)cc(S(C)(=O)=O)c1` [Formula IV], the “Hygroscopicity (in words)” value in data set [3] is “not being hygroscopic”. The Weight change in data set [3] (at any humidity such as any relative humidity) is on record as ≤ 0.3 % by weight.

Regarding `CCCNCCOc1cc(F)cc(S(C)(=O)=O)c1.Cl` [hydrochloric acid salt, hydrochloric acid salt of [2-(3-fluoro-5-methanesulfonylphenoxy)-ethyl](propyl)amine], the Weight gain result in data set [4] (95% relative humidity and 25° C., DVS) is on record as “approximately 3%”. For the same compound, the “Hygroscopicity (in words)” value in data set [4] (high relative humidities) is given as “hygroscopic at high relative humidities”.
